Assay results taken from patent US20190330192A1, “SUBSTITUTED AZOLYLPYRROLONES AND AZOLYLHYDANTOINS AND SALTS THEREOF AND USE THEREOF AS HERBICIDAL ACTIVE SUBSTANCES” (Bayer CropScience Aktiengesellschaft, priority 2016, published 2019).

Molecular target: T1, photosystem II (PS II) (Spinacia oleracea, UniProt P69560)
T1 construct: the chloroplasts were osmotically ruptured and the thylakoid membranes were then obtained by centrifugation; from tissue; host or cells: fresh spinach leaves; thylakoid membranes from isolated chloroplasts
Assay: Measurement of the PS II activity in thylakoid membranes (DCPIP reduction)
Assay type: biochemical
Details: test compound at 100 μM; spinach thylakoid membranes; DCPIP absorption at 595 nm over 10 min at 22° C. with exposure to light; read-out: Effect (inhibition of PS II activity)
Experimental: Cooled fresh spinach leaves were comminuted and homogenized in 50 mM phosphate buffer, pH 6.8. 10 mM KCl, 0.34 M sucrose (sucrose buffer) (blender, 1 g of plant material/ml). The homogenate was subsequently filtered through 4 layers of Miracloth and the chloroplasts were isolated by centrifugation, i.e. 10 min of centrifugation at 4400×g (4° C.). The sediment was suspended in 25 ml of sucrose buffer and re-centrifuged for 10 min at 4400×g (4° C.). The sediment was then suspended in 40 ml of 50 mM phosphate buffer, pH 6.8, 10 mM KCl, without sucrose. In this step, the chloroplasts were osmotically ruptured and the thylakoid membranes were then obtained by centrifugation (10 min, 4400×g, 4° C.). The membrane sediment was finally suspended in 20 ml of 50 mM phosphate buffer, pH 6.8, 10 mM KCl. […]
The electron transfer from PS II to an artificial electron acceptor, 2,6-dichlorophenolindophenol (DCPIP), was measured with exposure to light. The concentration of the blue oxidized form of DCPIP was determined spectrophotometrically at wavelength λ=595 nm. […]
Depending on the activity of the PS II preparation, the dilution was adjusted such that the measurement of the decrease in absorption (λ=595 nm) was linear for at least 10 min. […] On each microtiter plate, a known PS II inhibitor, for example metribuzin, was used as standard, which allowed the quality of the PS II test to be assessed. […]

Structure (SMILES) | inhibition at 100 µM (stock) | inhibition at 100 µM
CCC(=O)OC1C(C)=C(Cl)C(=O)N1c1nc(SC)n(C)n1 (centres unmarked) [1.74-185, 4-Chloro-3-methyl-1-[1-methyl-5-(methylsulfanyl)-1H-1,2,4-triazol-3-yl]-5-oxo-2,5-dihydro-1H-pyrrol-2-ylpropionate] | 30 to 50% | 
CC1=C(Cl)C(=O)N(c2nnn(C)n2)C1O (centres unmarked) [1.82-2, 3-Chloro-5-hydroxy-4-methyl-1-(1-methyl-1H-1,2,4,5-tetrazol-3-yl)-1,5-dihydro-2H-pyrrol-2-one] |  | 50 to 70%
